Reference: US20240307382A1, “MODULATORS OF THE INTEGRATED STRESS PATHWAY” (Calico Life Sciences LLC, priority 2017, published 2024)

Tested on: HEK293T cells carrying the ATF4 luciferase reporter
Experiment: ATF4-Luc assay (ATF4 luciferase reporter, tunicamycin-treated cells)
Type: cell-based
Conditions: Homo sapiens, HEK-293T, 1 μg/mL tunicamycin, 7 hours
Procedure, shortened: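 A stable HEK293T reporter line was made by placing the full-length human ATF4 5′-UTR ahead of a firefly luciferase sequence without its start methionine, delivered by retroviral transduction and puromycin selection. Cells were seeded at 30,000 per well in polylysine-coated 384-well plates, exposed next day to 1 μg/mL tunicamycin plus compound for 7 hours, and luminescence was read with One Glo.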

Structure (SMILES)	EC50 [µM]
O=C(CCOc1ccc(Cl)c(F)c1)NC12CCC(NC(=O)c3cc(C(F)F)no3)(CC1)C[C@@H]2O [Compound 1078, N-{(3S)-4-[3-(4-chloro-3-fluorophenoxy)propanamido]-3-hydroxybicyclo[2.2.2]octan-1-yl}-3-(difluoromethyl)-1,2-oxazole-5-carboxamide]	0.25 to 1
O=C(CCOc1ccc(Cl)c(F)c1)NC12CC(NC(=O)c3ccc(OC(F)(F)F)cn3)(C1)C2 [Compound 1079, N-{3-[3-(4-chloro-3-fluorophenoxy)propanamido]bicyclo[1.1.1]pentan-1-yl}-5-(trifluoromethoxy)pyridine-2-carboxamide]	> 2
O=C(COc1cc(F)c2cn[nH]c2c1)NC12CCC(NC(=O)c3cnc(C(F)F)cn3)(CC1)[C@@H](O)C2 [Compound 1080, 5-(difluoromethyl)-N-[(2S)-4-{2-[(4-fluoro-1H-indazol-6-yl)oxy]acetamido}-2-hydroxybicyclo[2.2.2]octan-1-yl]pyrazine-2-carboxamide]	0.05 to 0.25
Cc1onc(C(=O)NC23CC(NC(=O)COc4ccc(Cl)c(F)c4)(C2)C3)c1C(=O)Nc1ncc(C(F)(F)F)cc1Cl [Compound 1081, N^3-{3-[2-(4-chloro-3-fluorophenoxy)acetamido]bicyclo[1.1.1]pentan-1-yl}-N^4-[3-chloro-5-(trifluoromethyl)pyridin-2-yl]-5-methyl-1,2-oxazole-3,4-dicarboxamide]	> 2
O=C(COc1ccc(Cl)c(F)c1)NC12CCC(NC(=O)c3ccc4c(n3)CCCC4)(CC1)[C@@H](O)C2 [Compound 1082, N-{(2S)-4-[2-(4-chloro-3-fluorophenoxy)acetamido]-2-hydroxybicyclo[2.2.2]octan-1-yl}-5,6,7,8-tetrahydroquinoline-2-carboxamide]	< 0.05
O=C(COc1ccc(OC(F)(F)F)cc1)NC12CCC(NC(=O)c3ccc(Cl)c(F)c3)(CC1)[C@@H](O)C2 [Compound 1083, 4-chloro-3-fluoro-N-[(2S)-2-hydroxy-4-{2-[4-(trifluoromethoxy)phenoxy]acetamido}bicyclo[2.2.2]octan-1-yl]benzamide]	> 2
O=C(COc1ccc(Cl)c(F)c1)NC12CC(NC(=O)c3cncc(CO)n3)(C1)C2 [Compound 1084, N-{3-[2-(4-chloro-3-fluorophenoxy)acetamido]bicyclo[1.1.1]pentan-1-yl}-6-(hydroxymethyl)pyrazine-2-carboxamide]	1 to 2
O=C(COc1ccc(Cl)c(F)c1)NC12CC(NC(=O)c3cc(F)cc4c3OCOC4)(C1)C2 [Compound 1085, N-{3-[2-(4-chloro-3-fluorophenoxy)acetamido]bicyclo[1.1.1]pentan-1-yl}-6-fluoro-2H,4H-1,3-benzodioxine-8-carboxamide]	1 to 2
O=C(COc1ccc(Cl)c(F)c1)NC12CCC(NC(=O)c3cccnc3CO)(CC1)C[C@@H]2O [Compound 1086, N-{(3S)-4-[2-(4-chloro-3-fluorophenoxy)acetamido]-3-hydroxybicyclo[2.2.2]octan-1-yl}-2-(hydroxymethyl)pyridine-3-carboxamide]	> 2
O=C(COc1ccc(OC(F)(F)F)cc1)NC12CCC(NC(=O)c3cccnc3CO)(CC1)C[C@@H]2O [Compound 1087, 2-(hydroxymethyl)-N-[(3S)-3-hydroxy-4-{2-[4-(trifluoromethoxy)phenoxy]acetamido}bicyclo[2.2.2]octan-1-yl]pyridine-3-carboxamide]	> 2
CN(C)C(=O)c1cccnc1C(=O)NC12CC(NC(=O)COc3ccc(Cl)c(F)c3)(C1)C2 [Compound 1088, N^2-{3-[2-(4-chloro-3-fluorophenoxy)acetamido]bicyclo[1.1.1]pentan-1-yl}-N^3,N^3-dimethylpyridine-2,3-dicarboxamide]	1 to 2
O=C(COc1ccc(Cl)c(F)c1)NC12CC(NC(=O)c3ccc(Cl)c(O)c3)(C1)C2 [Compound 1089, 4-chloro-N-{3-[2-(4-chloro-3-fluorophenoxy)acetamido]bicyclo[1.1.1]pentan-1-yl}-3-hydroxybenzamide]	0.05 to 0.25
COCc1ccc(C(=O)NC23CC(NC(=O)COc4ccc(Cl)c(F)c4)(C2)C3)cn1 [Compound 1090, N-{3-[2-(4-chloro-3-fluorophenoxy)acetamido]bicyclo[1.1.1]pentan-1-yl}-6-(methoxymethyl)pyridine-3-carboxamide]	0.25 to 1
O=C(COc1ccc(Cl)c(F)c1)NC12CC(NC(=O)c3ncccc3CO)(C1)C2 [Compound 1091, N-{3-[2-(4-chloro-3-fluorophenoxy)acetamido]bicyclo[1.1.1]pentan-1-yl}-3-(hydroxymethyl)pyridine-2-carboxamide]	0.25 to 1
COc1cccnc1C(=O)NC12CC(NC(=O)COc3ccc(Cl)c(F)c3)(C1)C2 [Compound 1092, N-{3-[2-(4-chloro-3-fluorophenoxy)acetamido]bicyclo[1.1.1]pentan-1-yl}-3-methoxypyridine-2-carboxamide]	> 2
O=C(COc1ccc(Cl)c(F)c1)NC12CC(NC(=O)c3ccc4c(n3)CCCC4)(C1)C2 [Compound 1093, N-{3-[2-(4-chloro-3-fluorophenoxy)acetamido]bicyclo[1.1.1]pentan-1-yl]-5,6,7,8-tetrahydroquinoline-2-carboxamide]	0.05 to 0.25
O=C(COc1ccc(C(F)(F)F)cc1)NC12CCC(NC(=O)c3cc(C(F)F)no3)(CC1)C[C@@H]2O [Compound 1094, 3-(difluoromethyl)-N-[(3S)-3-hydroxy-4-{2-[4-(trifluoromethyl)phenoxy]acetamido}bicyclo[2.2.2]octan-1-yl]-1,2-oxazole-5-carboxamide]	0.05 to 0.25
O=C(COc1ccc2c(c1)OC(F)(F)O2)NC12CCC(NC(=O)c3cc(C(F)F)no3)(CC1)C[C@@H]2O [Compound 1095, N-[(3S)-4-{2-[(2,2-difluoro-2H-1,3-benzodioxol-5-yl)oxy]acetamido}-3-hydroxybicyclo[2.2.2]octan-1-yl]-3-(difluoromethyl)-1,2-oxazole-5-carboxamide]	0.05 to 0.25
O=C(COc1ccc(Cl)c(C(F)(F)F)c1)NC12CCC(NC(=O)c3cc(C(F)F)no3)(CC1)C[C@@H]2O [Compound 1096, N-[(3S)-4-{2-[4-chloro-3-(trifluoromethyl)phenoxy]acetamido}-3-hydroxybicyclo[2.2.2]octan-1-yl]-3-(difluoromethyl)-1,2-oxazole-5-carboxamide]	< 0.05
Cc1ccc(OCC(=O)NC23CCC(NC(=O)c4cc(C(F)F)no4)(CC2)C[C@@H]3O)cc1C [Compound 1097, 3-(difluoromethyl)-N-{(3S)-4-[2-(3,4-dimethylphenoxy)acetamido]-3-hydroxybicyclo[2.2.2]octan-1-yl}-1,2-oxazole-5-carboxamide]	0.05 to 0.25
Cc1ccc(OCC(=O)NC23CCC(NC(=O)c4cc(C(F)F)no4)(CC2)C[C@@H]3O)cc1 [Compound 1098, 3-(difluoromethyl)-N-{(3S)-3-hydroxy-4-[2-(4-methylphenoxy)acetamido]bicyclo[2.2.2]octan-1-yl}-1,2-oxazole-5-carboxamide]	0.05 to 0.25
O=C(COc1ccc(F)cc1)NC12CCC(NC(=O)c3cc(C(F)F)no3)(CC1)C[C@@H]2O [Compound 1099, 3-(difluoromethyl)-N-{(3S)-4-[2-(4-fluorophenoxy)acetamido]-3-hydroxybicyclo[2.2.2]octan-1-yl}-1,2-oxazole-5-carboxamide]	0.05 to 0.25
O=C(COc1ccc(F)c(F)c1)NC12CCC(NC(=O)c3cc(C(F)F)no3)(CC1)C[C@@H]2O [Compound 1100, 3-(difluoromethyl)-N-{(3S)-4-[2-(3,4-difluorophenoxy)acetamido]-3-hydroxybicyclo[2.2.2]octan-1-yl}-1,2-oxazole-5-carboxamide]	0.05 to 0.25
Cc1cc(OCC(=O)NC23CCC(NC(=O)c4cc(C(F)F)no4)(CC2)C[C@@H]3O)ccc1Cl [Compound 1101, N-{(3S)-4-[2-(4-chloro-3-methylphenoxy)acetamido]-3-hydroxybicyclo[2.2.2]octan-1-yl}-3-(difluoromethyl)-1,2-oxazole-5-carboxamide]	< 0.05
O=C(COc1ccc(Cl)cc1)NC12CCC(NC(=O)c3cc(C(F)F)no3)(CC1)C[C@@H]2O [Compound 1102, N-{(3S)4-[2-(4-chlorophenoxy)acetamido]-3-hydroxybicyclo[2.2.2]octan-1-yl}-3-(difluoromethyl)-1,2-oxazole-5-carboxamide]	< 0.05
O=C(COc1ccc(Cl)c(Cl)c1)NC12CCC(NC(=O)c3cnc(C(F)F)o3)(CC1)C[C@@H]2O [Compound 1103, N-{(3S)-4-[2-(3,4-dichlorophenoxy)acetamido]-3-hydroxybicyclo[2.2.2]octan-1-yl}-2-(difluoromethyl)-1,3-oxazole-5-carboxamide]	< 0.05
O=C(COc1ccc(Cl)c(F)c1)NC12CCC(NC(=O)c3cnc(C(F)F)o3)(CC1)C[C@@H]2O [Compound 1104, N-{(3S)-4-[2-(4-chloro-3-fluorophenoxy)acetamido]-3-hydroxybicyclo[2.2.2]octan-1-yl}-2-(difluoromethyl)-1,3-oxazole-5-carboxamide]	< 0.05
O=C(COc1ccc(Cl)c(F)c1)NC12CCC(NC(=O)c3cc(CO)ccn3)(CC1)[C@@H](O)C2 [Compound 1105, N-{(2S)-4-[2-(4-chloro-3-fluorophenoxy)acetamido]-2-hydroxybicyclo[2.2.2]octan-1-yl}-4-(hydroxymethyl)pyridine-2-carboxamide]	< 0.05
CCc1ncc(C(=O)NC23CCC(NC(=O)COc4ccc(Cl)c(F)c4)(CC2)C[C@@H]3O)o1 [Compound 1106, N-{(2S)-4-[2-(4-chloro-3-fluorophenoxy)acetamido]-2-hydroxybicyclo[2.2.2]octan-1-yl}-2-ethyl-1,3-oxazole-5-carboxamide]	< 0.05
Cc1nn(C)cc1C(=O)NC12CCC(NC(=O)COc3ccc(Cl)c(F)c3)(CC1)C[C@@H]2O [Compound 1107, N-{(2S)-4-[2-(4-chloro-3-fluorophenoxy)acetamido]-2-hydroxybicyclo[2.2.2]octan-1-yl}-1,3-dimethyl-1H-pyrazole-4-carboxamide]	> 2
